Results published in PMC9917632, “Structural and Biochemical Analyses of the Butanol Dehydrogenase from Fusobacterium nucleatum” (International Journal of Molecular Sciences, 2023).

Key:
[1] = target: T1, FnYqdH (Fusobacterium nucleatum YqdH, butanol dehydrogenase) (Fusobacterium nucleatum, UniProt Q8R612); test: X-ray crystal structure, […] Å, soaked crystal; conditions: soaked 1 min with 10 mM NADH and 2 mM Co2+; nucleotide-binding domain; open conformation
T1 construct: gene FN1415; recombinant, yqdH cloned NcoI/XhoI in pPRO-EX-HTA, expressed in Escherichia coli; dimer; 384 residues modelled (CD to residue 385)
T1 sequence (Q8R612 1-385): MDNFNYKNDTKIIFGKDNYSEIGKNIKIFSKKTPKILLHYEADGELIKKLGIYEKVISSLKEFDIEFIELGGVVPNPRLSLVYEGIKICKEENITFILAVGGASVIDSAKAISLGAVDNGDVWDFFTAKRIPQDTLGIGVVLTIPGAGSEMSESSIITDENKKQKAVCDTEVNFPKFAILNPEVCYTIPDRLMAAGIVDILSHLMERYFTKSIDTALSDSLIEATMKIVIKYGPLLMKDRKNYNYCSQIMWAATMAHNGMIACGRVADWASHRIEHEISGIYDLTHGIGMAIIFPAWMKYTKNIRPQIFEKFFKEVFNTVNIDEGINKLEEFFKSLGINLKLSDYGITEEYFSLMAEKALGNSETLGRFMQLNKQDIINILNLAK

[2] = target: T1, FnYqdH (Fusobacterium nucleatum YqdH, butanol dehydrogenase); test: NADH consumption at […] nm, double reciprocal plot; format: biochemical; conditions: 0.1-0.5 mM NADH; co-substrate butanal; Tris-HCl pH 6.0, CoSO4, 35 °C (standard assay)
TmBDH = target: T2, TmBDH (Thermotoga maritima, UniProt Q9WZS7); test: NADH consumption, spectrophotometric; format: biochemical; conditions: metal-free enzyme reconstituted with 2 mM Zn2+, Co2+, Ni2+ or Fe3+; co-substrate butanal
T2 construct: gene TM_0820; purified protein, EDTA-treated (metal-free) then metal-reconstituted
T2 sequence (Q9WZS7 1-395): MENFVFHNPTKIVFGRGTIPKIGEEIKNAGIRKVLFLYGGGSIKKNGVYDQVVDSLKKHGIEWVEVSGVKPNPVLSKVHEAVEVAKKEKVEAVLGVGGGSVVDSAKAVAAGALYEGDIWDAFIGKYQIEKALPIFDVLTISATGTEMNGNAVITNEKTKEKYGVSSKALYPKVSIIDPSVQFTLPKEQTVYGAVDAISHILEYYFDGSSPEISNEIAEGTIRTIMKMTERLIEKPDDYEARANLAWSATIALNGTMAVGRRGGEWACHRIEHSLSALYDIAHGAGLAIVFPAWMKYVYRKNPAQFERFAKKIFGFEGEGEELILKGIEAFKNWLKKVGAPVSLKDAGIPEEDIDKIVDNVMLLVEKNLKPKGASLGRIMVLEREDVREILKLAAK

[3] = target: T1, FnYqdH (Fusobacterium nucleatum YqdH, butanol dehydrogenase); test: NADPH consumption at […] nm, double reciprocal plot; format: biochemical; conditions: 0.1-1 mM NADPH; co-substrate butanal; Tris-HCl pH 6.0, CoSO4, 35 °C (standard assay)
[4] = target: Fusobacterium nucleatum YqdH (butanol dehydrogenase) (Fusobacterium nucleatum); test: SEC; purified FnYqdH (500 uL of 1 mg/mL) on Superdex 200 10/300 GL; 20 mM Tris-HCl pH 8.0, 150 mM NaCl, 2 mM BME; 0.5 mL/min

Compound: NC(=O)C1=CN([C@@H]2O[C@H](COP(=O)(O)OP(=O)(O)OC[C@H]3O[C@@H](n4cnc5c(N)ncnc54)[C@H](O)[C@@H]3O)[C@@H](O)[C@H]2O)C=CC1 [NADH]
- X-ray crystal structure, 2.72 Å, soaked crystal [1]: an electron-density map corresponding to NADH and metal ions was clearly observed
- apparent Km [2]: the apparent Km and Vmax values were measured with a purified protein
- NADH consumption, spectrophotometric (TmBDH): monitoring NADH consumption for five different metal ions

Compound: NC(=O)C1=CN([C@@H]2O[C@H](COP(=O)(O)OP(=O)(O)OC[C@H]3O[C@@H](n4cnc5c(N)ncnc54)[C@H](OP(=O)(O)O)[C@@H]3O)[C@@H](O)[C@H]2O)C=CC1 [NADPH]
- apparent Km [3]: NADH is preferred over NADPH in terms of FnYqdH activity (Figure S2)

Compound: Fusobacterium nucleatum YqdH (butanol dehydrogenase) (enzyme)
- stoichiometry N [4]: 2
